{"source": "patent US20220135526A1", "about": "“QUATERNARY AMMONIUM SALT COMPOUND, PREPARATION METHOD THEREFOR AND USE THEREOF” (WEST CHINA HOSPITAL, SICHUAN UNIVERSITY, priority 2019, published 2022)", "note": "Where a name gives a salt, the structure may show the parent alone.", "data": [{"system": "rat's sciatic nerve", "test": "Local anesthetic effect after injection near the rat sciatic nerve (von Frey stimulation; Postural Extensor Thrust for motor function)", "assay_type": "in vivo", "conditions": "SD rats, 0.5 mL near sciatic nerve; Postural Extensor Thrust; compounds 20 mmol/mL, levobupivacaine 0.75%, lidocaine 2%", "description": "(§1) Dosage: for lidocaine group, lidocaine was formulated with distilled water into a solution at the concentration of 2% (74 mmol/L); for levobupivacaine group, levobupivacaine was formulated with distilled water into a solution at the concentration of 0.75% (22 mmol/L); the compound of the present invention was formulated with distilled water into a solution at the concentration of […].\n(§2) The injection volume for each rat was 0.5 mL, which was guided by a nerve locator and injected near the rat's sciatic nerve. Using von Frey stimulator, the rats were stimulated the soles of the feet in the injected side, to observe the effect of local anesthesia. Meanwhile, Postural Extensor Thrust (PET) was used to evaluate the motor function of the rat: the rat was lifted vertically and the hindlimb in the injected side pedaled on the platform of the electronic balance. […] When the limb was completely paralyzed, the reading was the limb's own weight, about 20 g. If the measured value was more than half of the difference between the baseline and the limb weight, the motor function was regarded as recovery, and if the value was […], the motor function was regarded as loss.", "units": {"Duration of motor block": "h"}, "values": [{"smiles": "Cc1cccc(C)c1NC(=O)C[N+]1(CCCCN2CCCCC2C(=O)Nc2c(C)cccc2C)CCOC(C)C1", "note": "(stereo not drawn) [Example 48 product]", "Duration of motor block": 15}, {"smiles": "CCCCN1CCCC[C@H]1C(=O)Nc1c(C)cccc1C", "note": "[0.75% levobupivacaine hydrochloride, levobupivacaine hydrochloride, reference compound]", "Duration of motor block": 2.5}, {"smiles": "CCCCC[N+](CCCO)(CCCCCCN1CCCCC1C(=O)Nc1c(C)cccc1C)CC(=O)Nc1c(C)cccc1C.[Br-]", "note": "(stereo not drawn) [Example 14 product]", "Duration of motor block": 13}, {"smiles": "CCOCC[N+](CCCCCCN1CCC1C(=O)Nc1c(C)cccc1C)(CCOCC)CC(=O)Nc1c(C)cccc1C", "note": "(stereo not drawn) [Example 67 product]", "Duration of motor block": 14}, {"smiles": "CCCCC[N+](CCO)(CCCCCCN1CCCCC1C(=O)Nc1c(C)cccc1C)CC(=O)Nc1c(C)cccc1C.[Br-]", "note": "(stereo not drawn) [Example 13 product]", "Duration of motor block": 14}, {"smiles": "CCCCC[N+](CCCCS)(CCCCCCCN1CCCCCC1C(=O)Nc1c(C)cccc1C)CC(=O)Nc1c(C)cccc1C", "note": "(stereo not drawn) [Example 69 product]", "Duration of motor block": 10}, {"smiles": "CCCCC[N+](CCCCCCN1CCCCC1C(=O)Nc1c(C)cccc1C)(CCCOC)CC(=O)Nc1c(C)cccc1C.[Br-]", "note": "(stereo not drawn) [Example 23 product]", "Duration of motor block": 14}, {"smiles": "CCCCCCCC[N+](CCCCCCC)(CCCN1CCCCC1C(=O)Nc1c(C)cccc1C)CC(=O)Nc1c(C)cccc1C", "note": "(stereo not drawn) [Example 74 product]", "Duration of motor block": 17}, {"smiles": "Cc1cccc(C)c1NC(=O)C[N+](CO)(CCCCO)CCCCCCN1CCCCC1C(=O)Nc1c(C)cccc1C.[Br-]", "note": "(stereo not drawn) [Example 19 product]", "Duration of motor block": 10}]}, {"system": "rat's sciatic nerve", "test": "Local anesthetic effect after injection near the rat sciatic nerve (von Frey stimulation; Postural Extensor Thrust for motor function)", "assay_type": "in vivo", "conditions": "SD rats, 0.5 mL near sciatic nerve; compounds 20 mmol/mL, levobupivacaine 0.75% (22 mmol/L), lidocaine 2% (74 mmol/L)", "description": "as §1, §2", "units": {"Local anesthesia onset time": "min"}, "values": [{"smiles": "Cc1cccc(C)c1NC(=O)C[N+]1(CCCCN2CCCCC2C(=O)Nc2c(C)cccc2C)CCOC(C)C1", "note": "(stereo not drawn) [Example 48 product]", "Local anesthesia onset time": 5}, {"smiles": "CCCCN1CCCC[C@H]1C(=O)Nc1c(C)cccc1C", "note": "[0.75% levobupivacaine hydrochloride, levobupivacaine hydrochloride, reference compound]", "Local anesthesia onset time": 1}, {"smiles": "CCCCC[N+](CCCO)(CCCCCCN1CCCCC1C(=O)Nc1c(C)cccc1C)CC(=O)Nc1c(C)cccc1C.[Br-]", "note": "(stereo not drawn) [Example 14 product]", "Local anesthesia onset time": 5}, {"smiles": "CCOCC[N+](CCCCCCN1CCC1C(=O)Nc1c(C)cccc1C)(CCOCC)CC(=O)Nc1c(C)cccc1C", "note": "(stereo not drawn) [Example 67 product]", "Local anesthesia onset time": 1}, {"smiles": "CCCCC[N+](CCO)(CCCCCCN1CCCCC1C(=O)Nc1c(C)cccc1C)CC(=O)Nc1c(C)cccc1C.[Br-]", "note": "(stereo not drawn) [Example 13 product]", "Local anesthesia onset time": 4}, {"smiles": "CCCCC[N+](CCCCS)(CCCCCCCN1CCCCCC1C(=O)Nc1c(C)cccc1C)CC(=O)Nc1c(C)cccc1C", "note": "(stereo not drawn) [Example 69 product]", "Local anesthesia onset time": 1}, {"smiles": "CCCCC[N+](CCCCCCN1CCCCC1C(=O)Nc1c(C)cccc1C)(CCCOC)CC(=O)Nc1c(C)cccc1C.[Br-]", "note": "(stereo not drawn) [Example 23 product]", "Local anesthesia onset time": 5}, {"smiles": "CCCCCCCC[N+](CCCCCCC)(CCCN1CCCCC1C(=O)Nc1c(C)cccc1C)CC(=O)Nc1c(C)cccc1C", "note": "(stereo not drawn) [Example 74 product]", "Local anesthesia onset time": 1}, {"smiles": "Cc1cccc(C)c1NC(=O)C[N+](CO)(CCCCO)CCCCCCN1CCCCC1C(=O)Nc1c(C)cccc1C.[Br-]", "note": "(stereo not drawn) [Example 19 product]", "Local anesthesia onset time": 5}]}, {"system": "rat's sciatic nerve", "test": "Local anesthetic effect after injection near the rat sciatic nerve (von Frey stimulation; Postural Extensor Thrust for motor function)", "assay_type": "in vivo", "conditions": "SD rats, 0.5 mL near sciatic nerve; von Frey; compounds 20 mmol/mL, levobupivacaine 0.75%, lidocaine 2%", "description": "as §1, §2", "units": {"Duration of sensory block": "h"}, "values": [{"smiles": "Cc1cccc(C)c1NC(=O)C[N+]1(CCCCN2CCCCC2C(=O)Nc2c(C)cccc2C)CCOC(C)C1", "note": "(stereo not drawn) [Example 48 product]", "Duration of sensory block": 57}, {"smiles": "CCCCN1CCCC[C@H]1C(=O)Nc1c(C)cccc1C", "note": "[0.75% levobupivacaine hydrochloride, levobupivacaine hydrochloride, reference compound]", "Duration of sensory block": 2.5}, {"smiles": "CCCCC[N+](CCCO)(CCCCCCN1CCCCC1C(=O)Nc1c(C)cccc1C)CC(=O)Nc1c(C)cccc1C.[Br-]", "note": "(stereo not drawn) [Example 14 product]", "Duration of sensory block": 41}, {"smiles": "CCOCC[N+](CCCCCCN1CCC1C(=O)Nc1c(C)cccc1C)(CCOCC)CC(=O)Nc1c(C)cccc1C", "note": "(stereo not drawn) [Example 67 product]", "Duration of sensory block": 67}, {"smiles": "CCCCC[N+](CCO)(CCCCCCN1CCCCC1C(=O)Nc1c(C)cccc1C)CC(=O)Nc1c(C)cccc1C.[Br-]", "note": "(stereo not drawn) [Example 13 product]", "Duration of sensory block": 55}, {"smiles": "CCCCC[N+](CCCCS)(CCCCCCCN1CCCCCC1C(=O)Nc1c(C)cccc1C)CC(=O)Nc1c(C)cccc1C", "note": "(stereo not drawn) [Example 69 product]", "Duration of sensory block": 62}, {"smiles": "CCCCC[N+](CCCCCCN1CCCCC1C(=O)Nc1c(C)cccc1C)(CCCOC)CC(=O)Nc1c(C)cccc1C.[Br-]", "note": "(stereo not drawn) [Example 23 product]", "Duration of sensory block": 54}, {"smiles": "CCCCCCCC[N+](CCCCCCC)(CCCN1CCCCC1C(=O)Nc1c(C)cccc1C)CC(=O)Nc1c(C)cccc1C", "note": "(stereo not drawn) [Example 74 product]", "Duration of sensory block": 72}, {"smiles": "Cc1cccc(C)c1NC(=O)C[N+](CO)(CCCCO)CCCCCCN1CCCCC1C(=O)Nc1c(C)cccc1C.[Br-]", "note": "(stereo not drawn) [Example 19 product]", "Duration of sensory block": 39}]}, {"system": "back skin of SD rat", "test": "Local anesthetic effect by subcutaneous infiltration (back skin, Von Frey fiber 100 g)", "assay_type": "in vivo", "conditions": "SD rats, 0.5 mL subcutaneous in saline; compounds 6 mmol/L, controls 0.75% (22 mmol/L) and 2% (74 mmol/L)", "description": "After the back of SD rat weighing 250-300 g (half female and half male) was shaved and disinfected, a circle with a diameter of about 1.5 cm was drawn on the side of the exposed back, and the circle is divided into 6 equal parts. […] Among the Von Frey fiber yarns, the one with a strength of 100 g was bound to the needle for local skin stimulation. One minute After the drug was injected, the above method was used to stimulate in 6 divisions. […] If back skin contraction was observed, the local anesthetic effect was considered as loss. […] Each compound was tested with 10 rats.", "units": {"Duration of local anesthesia (median)": "h", "Local anesthesia onset time (median)": "min"}, "values": [{"smiles": "Cc1cccc(C)c1NC(=O)C[N+]1(CCCCN2CCCCC2C(=O)Nc2c(C)cccc2C)CCOC(C)C1", "note": "(stereo not drawn) [Example 48 product]", "Duration of local anesthesia (median)": 73, "Local anesthesia onset time (median)": 2}, {"smiles": "CCCCN1CCCC[C@H]1C(=O)Nc1c(C)cccc1C", "note": "[0.75% levobupivacaine hydrochloride, levobupivacaine hydrochloride, reference compound]", "Duration of local anesthesia (median)": 7, "Local anesthesia onset time (median)": 1}, {"smiles": "CCCCC[N+](CCCO)(CCCCCCN1CCCCC1C(=O)Nc1c(C)cccc1C)CC(=O)Nc1c(C)cccc1C.[Br-]", "note": "(stereo not drawn) [Example 14 product]", "Duration of local anesthesia (median)": 75, "Local anesthesia onset time (median)": 2}, {"smiles": "CCOCC[N+](CCCCCCN1CCC1C(=O)Nc1c(C)cccc1C)(CCOCC)CC(=O)Nc1c(C)cccc1C", "note": "(stereo not drawn) [Example 67 product]", "Duration of local anesthesia (median)": 58, "Local anesthesia onset time (median)": 1}, {"smiles": "CCCCC[N+](CCO)(CCCCCCN1CCCCC1C(=O)Nc1c(C)cccc1C)CC(=O)Nc1c(C)cccc1C.[Br-]", "note": "(stereo not drawn) [Example 13 product]", "Duration of local anesthesia (median)": 53, "Local anesthesia onset time (median)": 4}, {"smiles": "CCCCC[N+](CCCCS)(CCCCCCCN1CCCCCC1C(=O)Nc1c(C)cccc1C)CC(=O)Nc1c(C)cccc1C", "note": "(stereo not drawn) [Example 69 product]", "Duration of local anesthesia (median)": 80, "Local anesthesia onset time (median)": 1}, {"smiles": "CCCCC[N+](CCCCCCN1CCCCC1C(=O)Nc1c(C)cccc1C)(CCCOC)CC(=O)Nc1c(C)cccc1C.[Br-]", "note": "(stereo not drawn) [Example 23 product]", "Duration of local anesthesia (median)": 83, "Local anesthesia onset time (median)": 2}, {"smiles": "CCCCCCCC[N+](CCCCCCC)(CCCN1CCCCC1C(=O)Nc1c(C)cccc1C)CC(=O)Nc1c(C)cccc1C", "note": "(stereo not drawn) [Example 74 product]", "Duration of local anesthesia (median)": 56, "Local anesthesia onset time (median)": 1}, {"smiles": "Cc1cccc(C)c1NC(=O)C[N+](CO)(CCCCO)CCCCCCN1CCCCC1C(=O)Nc1c(C)cccc1C.[Br-]", "note": "(stereo not drawn) [Example 19 product]", "Duration of local anesthesia (median)": 62, "Local anesthesia onset time (median)": 1}]}]}
